The experiment addresses T1, HGFR (His6-HGFR cytoplasmic domain) (Homo sapiens, UniProt P08581).
T1 construct: made in house; host or cells: Spodoptera frugiperda Sf9 insect cells (baculovirus, pFastBac-HT)
Kind of experiment: Inhibitory activity against HGFR tyrosine kinase activity (HTRF). The class given is biochemical. Particulars: biotin-poly(GT), ATP, 30° C. 10 min, read-out: IC50 (concentration necessary to inhibit HGFR kinase activity by 50%). A digest of the protocol:
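Baculovirus/Sf9-expressed N-terminal His6-tagged HGFR cytoplasmic domain (from Lys974), Ni-NTA purified, phosphorylated biotin-poly(GT) in Hepes pH 7.4 with MgCl2/MnCl2. ATP added as 4 μM solution; 10 min at 30° C., stopped with EDTA. Phosphotyrosine product detected by HTRF.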

T1 sequence (P08581 956-1390 limits assumed): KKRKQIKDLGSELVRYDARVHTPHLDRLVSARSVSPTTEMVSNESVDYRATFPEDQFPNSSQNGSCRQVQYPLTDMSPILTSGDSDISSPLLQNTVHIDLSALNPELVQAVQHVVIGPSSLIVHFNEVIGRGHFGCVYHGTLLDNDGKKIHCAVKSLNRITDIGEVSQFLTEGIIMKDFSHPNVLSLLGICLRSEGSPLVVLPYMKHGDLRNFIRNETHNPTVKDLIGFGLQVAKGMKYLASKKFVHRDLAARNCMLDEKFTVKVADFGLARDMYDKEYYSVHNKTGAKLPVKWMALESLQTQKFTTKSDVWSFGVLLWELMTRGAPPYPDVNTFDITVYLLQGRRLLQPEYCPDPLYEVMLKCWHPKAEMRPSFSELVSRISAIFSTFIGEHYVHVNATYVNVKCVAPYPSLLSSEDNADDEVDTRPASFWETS

For `CN(C)CCN1CCN(C(=O)Nc2cc(Oc3ccc(NC(=S)NC(=O)Cc4ccc(F)cc4)cc3)ccn2)CC1` [Example 327, 2-{[4-(2-Dimethylaminoethyl)piperazin-1-yl]carbonylamino}-4-(4-{3-[2-(4-fluorophenyl)acetyl]thioureido}phenoxy)pyridine], the IC50 is 75 nM. In the case of `CN1CCN(C2CCN(C(=O)Nc3cc(Oc4ccc(NC(=O)NC(=O)Cc5ccc(F)cc5)cc4F)ccn3)CC2)CC1` [Example 343, 4-(2-Fluoro-4-{3-[2-(4-fluorophenyl)acetyl]ureido}phenoxy)-2-{[4-(1-methylpiperazin-4-yl)piperidin-1-yl]carbonylamino}pyridine] it was 120 nM; in that of `O=C(Cc1ccccc1)NC(=S)Nc1ccc(Oc2ccnc(NC(=O)N3CCC3)c2)cc1Cl` [Example 100, Azetidine-1-carboxylic acid {4-[3-chloro-4-(3-phenylacetylthioureido)phenoxy]pyridin-2-yl}amide], 200 nM. In the case of `CN1CCC(N2CCN(C(=O)Nc3cc(Oc4ccc(NC(=S)NC(=O)Cc5ccc(F)cc5)cc4)ccn3)CC2)CC1` [Example 329, 4-(4-{3-[2-(4-Fluorophenyl)acetyl]thioureido}phenoxy)-2-{[4-(1-methylpiperidin-4-yl)piperazin-1-yl]carbonylamino}pyridine] it was 64 nM; in that of `CCC(=O)Nc1cc(Oc2ccc(NC(=O)CC(=O)Nc3ccc(F)cc3)c(F)c2)ccn1` [Example 75, N-(4-Fluorophenyl)-N′-[4-(2-propionylaminopyridin-4-yloxy)-2-fluorophenyl]malonamide], 54 nM. In the case of `CN(C)CCN1CCC(N(C)C(=O)Nc2cc(Oc3ccc(NC(=S)NC(=O)Cc4ccccc4)cc3F)ccn2)CC1` [Example 223, 1-[1-(2-Dimethylaminoethyl)piperidin-4-yl]-3-{4-[2-fluoro-4-(3-phenylacetylthioureido)phenoxy]pyridin-2-yl}-1-methylurea] it was 58 nM; in that of `O=C(Cc1ccccc1)NC(=O)Nc1ccc(Oc2ccnc(NC(=O)N3CCN(CCN4CCC4)CC3)c2)c(F)c1` [Example 387, 4-[2-(Azetidin-1-yl)ethyl]piperazine-1-carboxylic acid {4-[2-fluoro-4-(3-phenylacetylureido)phenoxy]pyridin-2-yl}amide], 120 nM; in that of `CN(C)[C@@H]1CCN(C(=O)Nc2cc(Oc3ccc(NC(=S)NC(=O)Cc4ccccc4)cc3F)ccn2)C1` [Example 245, 2-{[(3R)-3-Dimethylaminopyrrolidin-1-yl]carbonylamino}-4-{2-fluoro-4-[3-(2-phenylacetyl)thioureido]phenoxy}pyridine], 81 nM. Regarding `CN1CC(N2CCN(C(=O)Nc3cc(Oc4ccc(NC(=O)NC(=O)Cc5ccc(F)cc5)cc4)ccn3)CC2)C1` [Example 376, 4-(1-Methylazetidin-3-yl)piperazine-1-carboxylic acid [4-(4-{3-[2-(4-fluorophenyl)acetyl]ureido}phenoxy)pyridin-2-yl]amide], the IC50 was 65 nM.

As to `CN(C)C(=O)Nc1cc(Oc2ccc(NC(=S)NC(=O)Cc3ccc(F)cc3)cc2F)ncn1` [Example 7, 3-[6-(2-Fluoro-4-{3-[2-(4-fluorophenyl)acetyl]thioureido}phenoxy)pyrimidin-4-yl]-1,1-dimethylurea], the IC50 was determined as 18 nM. Under `O=C(CC(=O)Nc1ccc(F)cc1F)Nc1ccc(Oc2ccnc(NC(=O)N3CCCC3)c2)c(F)c1` [Example 57, N-(3-Fluoro-4-{2-[(pyrrolidine-1-carbonyl)amino]pyridin-4-yloxy}phenyl)-N′-(2,4-difluorophenyl)malonamide] stands 48 nM; under `O=C(CC(=O)Nc1ccc(Oc2ccnc(NC(=O)N3CCCCC3)c2)cc1Cl)Nc1ccc(F)cc1` [Example 65, N-(2-Chloro-4-{2-[(piperidine-1-carbonyl)amino]pyridin-4-yloxy}phenyl)-N′-(4-fluorophenyl)malonamide], 87 nM; under `CN1CC(N2CCN(C(=O)Nc3cc(Oc4ccc(NC(=S)NC(=O)Cc5ccccc5)cc4F)ccn3)CC2)C1` [Example 381], 83 nM. `CN1CCN(CCCN(C)C(=O)Nc2cc(Oc3ccc(NC(=O)CC(=O)Nc4ccc(F)cc4)c(F)c3)ccn2)CC1` [Example 93, N-[2-Fluoro-4-(2-{3-methyl-3-[3-(4-methylpiperazin-1-yl)propyl]ureido}pyridin-4-yloxy)phenyl]-N′-(4-fluorophenyl)malonamide]: the IC50 turned out to be 93 nM. In the case of `O=C(Cc1ccccc1)NC(=S)Nc1ccc(Oc2ccnc(NC(=O)N3CCC(N4CCC(O)CC4)CC3)c2)c(F)c1` [Example 185, 4-{2-Fluoro-4-[3-(2-phenylacetyl)thioureido]phenoxy}-2-{[4-(4-hydroxypiperidin-1-yl)piperidin-1-yl]carbonylamino}pyridine] it was 47 nM; in that of `CN1CCC[C@@H](N(C)C(=O)Nc2cc(Oc3ccc(NC(=S)NC(=O)Cc4ccc(F)cc4)cc3F)ncn2)C1` [Example 312, 3-[6-(2-Fluoro-4-{3-[2-(4-fluorophenyl)acetyl]thioureido}phenoxy)pyrimidin-4-yl]-1-methyl-1-[(3R)-1-methylpiperidin-3-yl]urea], 48 nM.

Consider `CN(C)C1CCN(C(=O)Nc2cc(Oc3ccc(NC(=S)NC(=O)Cc4ccccc4)cc3F)ccn2)CC1` [Example 38, 2-{[4-(Dimethylamino)piperidin-1-yl]carbonylamino}-4-{2-fluoro-4-[3-(2-phenylacetyl)thioureido]phenoxy}pyridine], for which the IC50 amounted to 26 nM. In the case of `O=C(Cc1ccccc1)NC(=S)Nc1ccc(Oc2ccnc(NC(=O)N3CCC(N4CCC4)CC3)c2)c(F)c1` [Example 39, 2-{[4-(Azetidin-1-yl)piperidin-1-yl]carbonylamino}-4-{2-fluoro-4-[3-(2-phenylacetyl)thioureido]phenoxy}pyridine] it was 50 nM.

These data come from patent publication US20070270421A1, “Novel pyridine Derivative and Pyrimidine Derivative (1)” (priority 2004, published 2007).
